The numbers were not newly measured in patent US20050164162A1, “Methods for multiple parameters screening and evolution of cells to produce small molecules with multiple functionalities” (EVOLVA LTD., C/O DR. IUR. MARTIN EISENRING, priority 2002, published 2005), which cites them from elsewhere.

In one data set the test system is colorectal cancer. As to conditions: persons who regularly use Aspirin and other NSAIDs; population-based studies.
For data set [1] the following is noted: co-administration of retinoids (LG100268)+TZDs; clinical studies.

For the compound `CC(=O)Oc1ccccc1C(=O)O` [Aspirin], the “decrease in relative risk for colorectal cancer” value in the data set on colorectal cancer is 40-50%.

In the case of `Cc1cc2c(cc1C1(c3ccc(C(=O)O)cn3)CC1)C(C)(C)CCC2(C)C` [LG100268], the “increases insulin sensitivity and glucose uptake” value in data set [1] is 60%.
